PMC6695453, “Peptide translocation by the lysosomal ABC transporter TAPL is regulated by coupling efficiency and activation energy” (Scientific Reports, 2019)

How the values were obtained:
[1] = target: TmrAB (Thermus thermophilus, UniProt Q72J04+Q72J05); assay: NTP dependent peptide transport by TmrAB; conditions: 68 °C, 9-mer^FL peptide
[2] = test system: PatA/PatB; conditions: transport and NTP hydrolysis, 37 °C; cited from earlier work
Source text: Both nucleotides show the same Km and kcat values in respect of NTP hydrolysis. […] NTP dependent transport was found also for other ABC transporters. […] The full-length ABC transport Pdr5 from yeast hydrolyzes GTP and even UTP, but ...

[3] = target: T1, TAPL (Homo sapiens, UniProt Q9NP78); conditions: GTP vs ATP; cited from earlier work
T1 construct: Human coreTAPL (Q9NP78 UniProt, amino acid 143–766) fused C-terminally to mVenus; made in house; host or cells: Pichia pastoris SMD1168-His+
T1 sequence (Q9NP78 143-766): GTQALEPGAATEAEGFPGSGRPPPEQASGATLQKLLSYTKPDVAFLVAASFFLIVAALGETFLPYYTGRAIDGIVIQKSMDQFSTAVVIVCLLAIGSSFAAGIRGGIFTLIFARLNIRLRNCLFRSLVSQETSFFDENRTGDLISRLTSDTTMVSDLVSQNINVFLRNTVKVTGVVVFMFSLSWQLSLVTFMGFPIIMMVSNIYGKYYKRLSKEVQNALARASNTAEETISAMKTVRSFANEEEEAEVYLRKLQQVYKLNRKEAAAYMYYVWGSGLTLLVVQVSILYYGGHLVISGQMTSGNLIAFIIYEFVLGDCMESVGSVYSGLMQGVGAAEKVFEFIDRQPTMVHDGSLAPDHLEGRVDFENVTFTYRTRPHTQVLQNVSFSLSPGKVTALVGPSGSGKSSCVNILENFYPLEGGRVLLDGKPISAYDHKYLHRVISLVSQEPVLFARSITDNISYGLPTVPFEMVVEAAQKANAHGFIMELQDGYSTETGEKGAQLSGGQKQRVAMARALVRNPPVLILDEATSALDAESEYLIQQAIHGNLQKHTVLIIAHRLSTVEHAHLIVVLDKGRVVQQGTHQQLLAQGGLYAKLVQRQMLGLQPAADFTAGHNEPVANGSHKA
Source text: To decipher the coupling between nucleotide hydrolysis and peptide transport, we intended to reduce futile hydrolysis cycles without translocating peptides. Assuming a kinetic effect where ATP binding and subsequent ATP hydrolysis is much faster than peptide binding, a more stoichiometric coupling should be obtained with decreasing ATP concentrations. Therefore, we determined Michaelis-Menten kinetics of nucleotide hydrolysis and peptide transport with decreasing nucleotide concentrations. For sensitivity reasons, we switched from the colorimetric malachite green based assay to a radioactive b ...

[4] = test system: P-gp; conditions: cited from earlier work
Source text: Other ABC transporters like P-glycoprotein have a biphasic substrate dependent ATPase activity. […] Basal ATPase activity of MRP1 is 3-fold stimulated by its substrate leucotriene C4, which forms contacts to both halfs o ...

| SMILES | fold decreased transport rate for GTP compared to ATP, TmrAB [1] | nucleotide preference of PatA/PatB (in words) [2] | fuelling of peptide transport vs ATP (in words) [3] | effect on P-gp transport and ATP hydrolysis (in words) [4] |
| --- | --- | --- | --- | --- |
| Nc1nc2c(ncn2[C@@H]2O[C@H](COP(=O)(O)OP(=O)(O)OP(=O)(O)O)[C@@H](O)[C@H]2O)c(=O)[nH]1 [GTP] | 6 fold | strongly prefers GTP over ATP | to a lower extend than ATP |  |
| O[C@@H](COc1cccc2ncccc12)CN1CCN([C@@H]2c3ccccc3[C@@H]3[C@H](c4ccccc42)C3(F)F)CC1 [Zosuquidar] |  |  |  | inhibits transport but stimulates ATP hydrolysis |
